Some results are limits rather than exact numbers.

The test deals with Human Umbilical Vein Endothelial cells (VEGF-stimulated). Briefly: HUVEC proliferation assay, VEGF-stimulated. The test is classed as cell-based. The settings on record: VEGF 50 ng/mL, 72 h, CyQuant, read-out: inhibited VEGF-stimulated HUVEC proliferation at a level. How it is done:
Human Umbilical Vein Endothelial cells are purchased from Clonetics, Inc., as cryopreserved cells harvested from a pool of donors. These cells, at passage 1, are thawed and expanded in EBM-2 complete medium, until passage 2 or 3. The cells are trypsinized, washed in DMEM+10% FBS+antibiotics, and spun at 1000 rpm for 10 min. Prior to centrifugation of the cells, a small amount is collected for a cell count. After centrifugation, the medium is discarded, and the cells are resuspended in the appropriate volume of DMEM+10% FBS+antibiotics to achieve a concentration of 3×10^5 cells/mL. Another cell count is performed to confirm the cell concentration. The cells are diluted to 3×10^4 cells/mL in DMEM+10% FBS+antibiotics, and 100 μL of cells are added to a 96-well plate. The cells are incubated at 37° C. for 22 h.
Prior to the completion of the incubation period, compound dilutions are prepared. Five-point, five-fold serial dilutions are prepared in DMSO, at concentrations 400-fold greater than the final concentrations desired. 2.5 μL of each compound dilution are diluted further in a total of 1 mL DMEM+10% FBS+antibiotics (400× dilution). Medium containing 0.25% DMSO is also prepared for the 0 μM compound sample. At the 22-hour timepoint, the medium is removed from the cells, and 100 μL of each compound dilution is added. The cells are incubated at 37° C. for 2-3 h.
During the compound pre-incubation period, the growth factors are diluted to the appropriate concentrations. Solutions of DMEM+10% FBS+antibiotics, containing either VEGF or bFGF at the following concentrations: 50, 10, 2, 0.4, 0.08, and 0 ng/mL are prepared. For the compound-treated cells, solutions of VEGF at 550 ng/mL or bFGF at 220 ng/mL for 50 ng/mL or 20 ng/mL final concentrations, respectively, are prepared since 10 μL of each will be added to the cells (110 μL final volume). At the appropriate time after adding the compounds, the growth factors are added. VEGF is added to one set of plates, while bFGF is added to another set of plates. For the growth factor control curves, the media on wells B4-G6 of plates 1 and 2 are replaced with media containing VEGF or bFGF at the varying concentrations (50-0 ng/mL). The cells are incubated at 37° C. for an additional 72 h.
At the completion of the 72 h incubation period, the medium is removed, and the cells are washed twice with PBS. After the second wash with PBS, the plates are tapped gently to remove excess PBS, and the cells are placed at −70° C. for at least 30 min. The cells are thawed and analyzed using the CyQuant fluorescent dye (Molecular Probes C-7026), following the manufacturer's recommendations. The plates are read on a Victor/Wallac 1420 workstation at 485 nm/530 nm (excitation/emission). Raw data are collected and analyzed using a 4-parameter fit equation in XLFit. IC50 values are then determined.
As to `CC1(C)COc2cc(NC(=O)c3cccnc3NCc3ccncc3)ccc21` [Example 973, N-(3,3-Dimethyl-2,3-dihydro-benzofuran-6-yl)-2-[(pyridin-4-ylmethyl)-amino]-nicotinamide], the IC50 was less than 50 nM. `CN(C)CC(=O)Nc1cc(NC(=O)c2cccnc2NCc2ccnc3ccccc23)ccc1C(C)(C)C` [Example 1072, N-(4-(1,1-dimethylethyl)-3-((N,N-dimethylglycyl)amino)phenyl)-2-((4-quinolinylmethyl)amino)-3-pyridinecarboxamide]: the IC50 is less than 50 nM. Consider `COc1cc(CNc2ncccc2C(=O)Nc2ccc3c(c2)CNCC32CC2)ccn1` [Example 1128, N-(4-Spiro-1′-cyclopropane-1,2,3,4-tetrahydroisoquinolin-7-yl)-2-[(2-methoxy-pyridin-4-ylmethyl)-amino]-nicotinamide], for which the IC50 is less than 50 nM.

As to `O=C(Nc1ccc(Cl)c(Cl)c1)c1cccnc1NCc1ccncc1` [Example 4, N-(3,4-Dichlorophenyl){2-[(4-pyridylmethyl)amino](3-pyridyl)}-carboxamide], the IC50 is less than 50 nM. To `O=C(Nc1ccc(Cl)cc1)c1cccnc1NCc1ccnc2ccccc12` [Example 20, N-(4-Chlorophenyl){2-[(4-quinolylmethyl)amino](3-pyridyl)}carboxamide] belongs less than 50 nM; to `CNc1nccc(CNc2ncccc2C(=O)Nc2ccc3c(c2)NC(=O)CC3(C)C)n1` [Example 1115, N-(4,4-Dimethyl-2-oxo-1,2,3,4-tetrahydro-quinolin-7-yl)-2-[(2-methylamino-pyrimidin-4-ylmethyl)-amino]-nicotinamide], less than 50 nM. Turning to `CNc1nccc(CNc2ncccc2C(=O)Nc2ccc3c(c2)NCC3(C)C)n1` [Example 1040, N-(3,3-Dimethyl-2,3-dihydro-1H-indol-6-yl)-2-(((2-(methylamino)-4-pyrimidinyl)methyl)amino)-3-pyridinecarboxamide], the IC50 was less than 50 nM. Consider `CN1CCC(C(C)(C)c2ccc(NC(=O)c3cccnc3NCc3ccnc4ccccc34)cc2)CC1` [Example 1028, N-(4-(1-Methyl-1-(1-methyl-4-piperidinyl)ethyl)phenyl)-2-((4-quinolinylmethyl)amino)-3-pyridinecarboxamide], for which the IC50 was less than 50 nM. With `COc1nccc(CNc2ncccc2C(=O)Nc2ccc(C(C)(C)C)c(NC(=O)CN(C)C)c2)n1` [Example 1074, N-(4-(1,1-dimethylethyl)-3-((N,N-dimethylglycyl)amino)phenyl)-2-(((2-(methyloxy)-4-pyrimidinyl)methyl)amino)-3-pyridinecarboxamide], the IC50 was less than 50 nM. On to `O=C(Nc1cc(OCC2CNC2)cc(C(F)(F)F)c1)c1cccnc1NCc1ccncc1` [Example 977, N-[3-(azetidin-3-ylmethoxy)-5-trifluoromethyl-phenyl]-2-[(pyridin-4-ylmethyl)-amino]-nicotinamide], for which the IC50 was less than 50 nM. As for `CNc1nccc(CNc2ncccc2C(=O)Nc2ccc(C(C)(C)C)c(NC(=O)CN(C)C)c2)n1` [Example 1077, N-(4-(1,1-dimethylethyl)-3-((N,N-dimethylglycyl)amino)phenyl)-2-(((2-(methylamino)-4-pyrimidinyl)methyl)amino)-3-pyridinecarboxamide], the figure is less than 50 nM.

With `CNc1cc(CNc2ncccc2C(=O)Nc2ccc3c(c2)NC(=O)CC3(C)C)ccn1` [Example 1119, N-(4,4-Dimethyl-2-oxo-1,2,3,4-tetrahydro-quinolin-7-yl)-2-[(2-methylamino-pyridin-4-ylmethyl)-amino]-nicotinamide], the IC50 was less than 50 nM. To `COc1cc(CNc2ncccc2C(=O)Nc2ccc(C(C)C)cc2)ccn1` [Example 140, (2-{[(2-Methoxy(4-pyridyl))methyl]amino}(3-pyridyl))-N-[4-(methylethyl)phenyl]carboxamide] belongs less than 50 nM; to `O=C(Nc1ccc(C(F)(F)F)c(OCCN2CCCC2)c1)c1cccnc1NCc1ccnc2ccccc12` [Example 1021, N-(3-((2-(1-pyrrolidinyl)ethyl)oxy)-4-(trifluoromethyl)phenyl)-2-((4-quinolinylmethyl)amino)-3-pyridinecarboxamide], less than 50 nM; to `CNc1cc(CNc2ncccc2C(=O)Nc2ccc3c(c2)NCC32CC2)ccn1` [Example 1107, N-(1,2-dihydroindol-3-spiro-1′-cyclopropane-6-yl)-2-[(2-methylaminopyridin-4-ylmethyl)-amino]-nicotinamide], less than 50 nM.

Turning to `CC(C)(C)c1ccc(NC(=O)c2cccnc2NCc2ccnc(Cl)c2)cc1` [Example 138, N-[4-(tert-Butyl)phenyl](2-{[(2-chloro(4-pyridyl))methyl]amino}(3-pyridyl))carboxamide], the IC50 is less than 50 nM. Take `CC(CNc1cc(CNc2ncccc2C(=O)Nc2ccc3c(c2)NCC3(C)C)ccn1)N1CCOCC1` (stereo not drawn) [Example 1008, N-(3,3-dimethyl-2,3-dihydro-1H-indol-6-yl)-2-{[2-(2-morpholin-4-yl-propylamino)-pyridin-4-ylmethyl]-amino}-nicotinamide]: the IC50 was less than 50 nM. On to `CCOC(=O)N1CC2(CC2)c2ccc(NC(=O)c3cccnc3NCc3ccnc(NC)c3)cc21` [Example 1106, Ethyl [1,2-dihydro-6-({2-[(2-methylamino-pyridin-4-ylmethyl)-amino]-pyridine-3-carbonyl}-amino)-3-spiro-1′-cyclopropyl-1H-indole]-1-carbamate], for which the IC50 is less than 50 nM.

As to `O=C(Nc1ccc(C(F)(F)C(F)(F)F)c(OCCN2CCCCC2)c1)c1cccnc1NCc1ccncc1` [Example 955, N-[4-Pentafluoroethyl-3-(2-piperidin-1-yl-ethoxy)-phenyl]-2-[(pyridin-4-ylmethyl)-amino]-nicotinamide], the IC50 is less than 50 nM. As to `COc1nccc(CNc2ncccc2C(=O)Nc2ccc3c(c2)CNCC3(C)C)n1` [Example 1132, N-(4,4-Dimethyl-1,2,3,4-tetrahydro-isoquinolin-7-yl)-2-[(2-methoxy-pyrimidin-4-ylmethyl)-amino]-nicotinamide], the IC50 is less than 50 nM. On to `CNc1nccc(CNc2ncccc2C(=O)Nc2ccc3c(c2)NCCC3(C)C)n1` [Example 1112, N-(4,4-Dimethyl-1,2,3,4-tetrahydro-quinolin-7-yl)-2-[(2-methylamino-pyrimidin-4-ylmethyl)-amino]-nicotinamide], for which the IC50 was less than 50 nM. Turning to `O=C(Nc1ccc(-c2ccccc2)cc1)c1cccnc1NCc1ccncc1` [Example 159, N-(4-Biphenyl){2-[(4-pyridylmethyl)amino](3-pyridyl)}carboxamide], the IC50 is less than 50 nM. For the compound `O=C(Nc1ccc(C(F)(F)C(F)(F)F)cc1)c1cccnc1NCc1ccncc1` [Example 78, N-[4-(1,1,2,2,2-Pentafluoroethyl)phenyl]{2-[(4-pyridylmethyl)amino](3-pyridyl)}carboxamide], the IC50 is less than 50 nM.

As for `CC1(C)CNc2cc(NC(=O)c3cccnc3NCc3ccncc3)ccc2O1` [Example 995, N-(2,2-Dimethyl-3,4-dihydro-2H-benzo[1,4]oxazin-6-yl)-2-[(pyridin-4-ylmethyl)-amino]-nicotinamide], the IC50 is less than 50 nM. `CC1(C)CNCc2cc(NC(=O)c3cccnc3NCc3ccnc4ccccc34)ccc21` [Example 1192, N-(4,4-Dimethyl-1,2,3,4-tetrahydro-isoquinolin-7-yl)-2-[(quinolin-4-ylmethyl)-amino]-nicotinamide]: the IC50 was less than 50 nM. As for `CC(C)(C)c1ccc(NC(=O)c2cccnc2NCc2ccnc(OCCN3CCOCC3)c2)cc1` [Example 905, N-(4-tert-Butyl-phenyl)-2-{[2-(2-morpholin-4-yl-ethoxy)-pyridin-4-ylmethyl]-amino}-nicotinamide], the figure is less than 50 nM; as for `CS(=O)(=O)NCCOc1cc(NC(=O)c2cccnc2NCc2ccncc2)ccc1C(F)(F)C(F)(F)F` [Example 1031, N-(3-((2-((Methylsulfonyl)amino)ethyl)oxy)-4-(pentafluoroethyl)phenyl)-2-((4-pyridinylmethyl)amino)-3-pyridinecarboxamide], less than 50 nM.

Values taken from patent US7687643B2, “Process for preparing 3,3-dimethylindolines” (Amgen Inc., priority 2001, dated 2010).
